Data as given in patent US12162893B2 (Erasca, Inc., priority 2020, dated 2024).

Target: T1, mutant G12C K-RAS (Homo sapiens, UniProt P01116, G12C)
T1 construct: made in house; host or cells: E. coli BL21
Experiment: covalent adduct formation (CAF) with mutant G12C K-RAS
Format: binding
Parameters: CAF: unit not given here
Conditions: for % CAF @ 10 μM,1 h: Table 6
Experimental: Embodiments disclosed herein are further illustrated by the following examples in Tables 1-4 and the Examples hereinbelow. The Tables indicate the compound number, structure, the observed mass spectral molecular weight peak, and covalent adduct formation (CAF) with a mutant G12C K-RAS after 60 minutes at a concentration of 10 micromolar.

[1] = Table 2, Pyrimidone Core-Morpholine Substituted, after 60 minutes at 10 micromolar

For `C=CC(=O)N1C[C@H](C)N(c2nc(=O)n3c4c(c(-c5ccc(F)cc5F)c(Cl)cc24)O[C@@H](CCCO)C3)C[C@H]1C` [Example 247, (2S)-7-((2S,5R)-4-acryloyl-2,5-dimethylpiperazin-1-yl)-9-chloro-10-(2,4-difluorophenyl)-2-(3-hydroxypropyl)-2,3-dihydro-5H-[1,4]oxazino[2,3,4-ij]quinazolin-5-one], which “% CAF @ 10 μM,1 h” value is on record?
Its value is 42.2%.

How did the CAF (Table 3, Pyridone Core-Morpholine Unsubstituted, after 60 minutes at 10 micromolar) turn out when `C=CC(=O)N1C[C@H](C)N(c2c(C#N)c(=O)n3c4c(c(-c5c(O)cccc5F)c(Cl)cc24)OCC3)C[C@H]1C` [Example 43, (R)-7-((2S,5R)-4-acryloyl-2,5-dimethylpiperazin-1-yl)-9-chloro-10-(2-fluoro-6-hydroxyphenyl)-5-oxo-3,5-dihydro-2H-[1,4]oxazino[2,3,4-ij]quinoline-6-carbonitrile] was run?
Its CAF is 0.

`C=CC(=O)N1C[C@H](C)N(c2nc(=O)n3c4c(c(-c5cccc6ccccc56)c(Cl)cc24)OC[C@H]3Cn2ccnc2)C[C@H]1C` (atropisomer, axis not shown) [Example 318, (3R,10S)-3-((1H-imidazol-1-yl)methyl)-7-((2S,5R)-4-acryloyl-2,5-dimethylpiperazin-1-yl)-9-chloro-10-(naphthalen-1-yl)-2,3-dihydro-5H-[1,4]oxazino[2,3,4-ij]quinazolin-5-one] was tested. Which “% CAF @ 10 μM,1 h” value did it give?
Its value is 70.6%.

For `C=CC(=O)N1C[C@H](C)N(c2nc(=O)n3c4c(c(-c5c(O)cccc5F)c(Cl)cc24)OC[C@@H]3CO)C[C@H]1C` [Example 26, (3S)-7-((2S,5R)-4-acryloyl-2,5-dimethylpiperazin-1-yl)-9-chloro-10-(2-fluoro-6-hydroxyphenyl)-3-(hydroxymethyl)-2H-[1,4]oxazino[2,3,4-ij]quinazolin-5(3H)-one], which “% CAF (60 min)” value [1] is on record?
The value was 81.9%.

`C=CC(=O)N1C[C@H](C)N(c2nc(=O)n3c4c(c(-c5ccc(F)c(Cl)c5)ccc24)OCC3)C[C@H]1C` [Example 12, 7-((2S,5R)-4-acryloyl-2,5-dimethylpiperazin-1-yl)-10-(3-chloro-4-fluorophenyl)-2H-[1,4]oxazino[2,3,4-ij]quinazolin-5(3H)-one] was tested. Which “% CAF (60 min)” value (Table 1, Pyrimidone Core-Morpholine Unsubstituted, after 60 minutes at 10 micromolar) did it give?
The value was 0%.

Which “% CAF (60 min)” value [1] does the source give for `C=CC(=O)N1CCN(c2nc(=O)n3c4c(c(-c5c(O)cccc5F)c(Cl)cc24)OC[C@H]3CO)CC1` [Example 20, (3R,10R)-7-(4-acryloylpiperazin-1-yl)-9-chloro-10-(2-fluoro-6-hydroxyphenyl)-3-(hydroxymethyl)-2H-[1,4]oxazino[2,3,4-ij]quinazolin-5(3H)-one] here?
The value was 0%.

For `C=CC(=O)N1C[C@H](C)N(c2nc(=O)n3c4c(c(-c5c(O)cccc5F)c(Cl)cc24)OC[C@H]3Cn2cccn2)C[C@H]1C` (atropisomer, axis not shown) [Example 245, (3R,10R)-3-((1H-pyrazol-1-yl)methyl)-7-((2S,5R)-4-acryloyl-2,5-dimethylpiperazin-1-yl)-9-chloro-10-(2-fluoro-6-hydroxyphenyl)-2H-[1,4]oxazino[2,3,4-ij]quinazolin-5(3H)-one], which “% CAF @ 10 μM,1 h” value is on record?
Its value is 0%.

`C=CC(=O)N1C[C@H](C)N(c2nc(=O)n3c4c(c(-c5c(C)ccc6[nH]ncc56)c(Cl)cc24)OC[C@@H]3CCCN2C3CCC2COC3)C[C@H]1C` [Example 282, (3S,10R)-3-(3-(3-oxa-8-azabicyclo[3.2.1]octan-8-yl)propyl)-7-((2S,5R)-4-acryloyl-2,5-dimethylpiperazin-1-yl)-9-chloro-10-(5-methyl-1H-indazol-4-yl)-2,3-dihydro-5H-[1,4]oxazino[2,3,4-ij]quinazolin-5-one] was tested. Which “% CAF @ 10 μM,1 h” value did it give?
The value was 86%.

Which “% CAF @ 10 μM,1 h” value does the source give for `C=CC(=O)N1C[C@H](C)N(c2nc(=O)n3c4c(c(-c5ccc(F)cc5F)c(Cl)cc24)OC[C@H]3CCCN2CCS(=O)(=O)CC2)C[C@H]1C` [Example 253, (3R)-7-((2S,5R)-4-acryloyl-2,5-dimethylpiperazin-1-yl)-9-chloro-10-(2,4-difluorophenyl)-3-(3-(1,1-dioxidothiomorpholino)propyl)-2,3-dihydro-5H-[1,4]oxazino[2,3,4-ij]quinazolin-5-one] here?
Its value is 87.6%.

For `C=CC(=O)N1C[C@H](C)N(c2nc(=O)n3c4c(c(-c5c(C)ccc6[nH]ncc56)c(Cl)cc24)OC[C@H]3CCCN2C[C@@H]3C[C@H]2CO3)C[C@H]1C` (atropisomer, axis not shown) [Example 326, (3R,10R)-3-(3-((1S,4S)-2-oxa-5-azabicyclo[2.2.1]heptan-5-yl)propyl)-7-((2S,5R)-4-acryloyl-2,5-dimethylpiperazin-1-yl)-9-chloro-10-(5-methyl-1H-indazol-4-yl)-2,3-dihydro-5H-[1,4]oxazino[2,3,4-ij]quinazolin-5-one], which “% CAF @ 10 μM,1 h” value is on record?
Its value is 94.2%.

With `C=CC(=O)N1C[C@H](C)N(c2nc(=O)n3c4c(c(-c5ccc(F)cc5F)c(Cl)cc24)OC[C@H]3CCN2CCOCC2)C[C@H]1C` [Example 213, (3R)-7-((2S,5R)-4-acryloyl-2,5-dimethylpiperazin-1-yl)-9-chloro-10-(2,4-difluorophenyl)-3-(2-morpholinoethyl)-2H-[1,4]oxazino[2,3,4-ij]quinazolin-5(3H)-one] as the molecule, how does the “% CAF @ 10 μM,1 h” value read?
The value was 90.6%.

For `C=CC(=O)N1C[C@H](C)N(c2nc(=O)n3c4c(c(-c5ccc(F)cc5F)c(C5CC5)cc24)OC[C@H]3CCCN2C[C@@H]3C[C@H]2CO3)C[C@H]1C` [Example 323, (3R)-3-(3-((1S,4S)-2-oxa-5-azabicyclo[2.2.1]heptan-5-yl)propyl)-7-((2S,5R)-4-acryloyl-2,5-dimethylpiperazin-1-yl)-9-cyclopropyl-10-(2,4-difluorophenyl)-2,3-dihydro-5H-[1,4]oxazino[2,3,4-ij]quinazolin-5-one], which “% CAF @ 10 μM,1 h” value is on record?
Its value is 81.1%.

Which “% CAF @ 10 μM,1 h” value does the source give for `C=CC(=O)N1C[C@H](C)N(c2nc(=O)n3c4c(c(-c5ccc(F)cc5F)c(Cl)cc24)OC[C@@H]3CCCN2[C@@H]3CC[C@H]2COC3)C[C@H]1C` [Example 252, (3S)-3-(3-((1R,5S)-3-oxa-8-azabicyclo[3.2.1]octan-8-yl)propyl)-7-((2S,5R)-4-acryloyl-2,5-dimethylpiperazin-1-yl)-9-chloro-10-(2,4-difluorophenyl)-2H-[1,4]oxazino[2,3,4-ij]quinazolin-5(3H)-one] here?
The value was 60.5%.

With `C=CC(=O)N1C[C@H](C)N(c2nc(=O)n3c4c(c(-c5ccc(F)cc5F)c(Cl)cc24)OC[C@H]3COC[C@H]2CCCN2C)C[C@H]1C` [Example 287, (3R)-7-((2S,5R)-4-acryloyl-2,5-dimethylpiperazin-1-yl)-9-chloro-10-(2,4-difluorophenyl)-3-((((R)-1-methylpyrrolidin-2-yl)methoxy)methyl)-2H-[1,4]oxazino[2,3,4-ij]quinazolin-5(3H)-one] as the molecule, how does the “% CAF @ 10 μM,1 h” value read?
The value was 91.6%.

With `C=CC(=O)N1C[C@H](C)N(c2nc(=O)n3c4c(c(-c5ccc(F)cc5F)c(Cl)cc24)OCC3CN2CCC(F)(F)C2)C[C@H]1C` (stereo in doubt) [Example 207, (3R)-7-((2S,5R)-4-acryloyl-2,5-dimethylpiperazin-1-yl)-9-chloro-10-(2,4-difluorophenyl)-3-((3,3-difluoropyrrolidin-1-yl)methyl)-2H-[1,4]oxazino[2,3,4-ij]quinazolin-5(3H)-one] as the molecule, how does the “% CAF @ 10 μM,1 h” value read?
The value was 85.6%.

Which “% CAF @ 10 μM,1 h” value does the source give for `C=CC(=O)N1C[C@H](C)N(c2nc(=O)n3c4c(c(-c5cccc6ccccc56)c(Cl)cc24)OC[C@H]3CN2CCN(C)CC2)C[C@H]1C` (atropisomer, axis not shown) [Example 295, (3R,10R)-7-((2S,5R)-4-acryloyl-2,5-dimethylpiperazin-1-yl)-9-chloro-3-((4-methylpiperazin-1-yl)methyl)-10-(naphthalen-1-yl)-2H-[1,4]oxazino[2,3,4-ij]quinazolin-5(3H)-one] here?
Its value is 58.4%.
